Several values for one entry are separate records, joined by “and”; a condition that tells them apart may be missing. Identical values can stand only once. Toxic doses and inconclusive results are not listed.
Test system: P388 leukemia ip, CD2F1 mice, survival T/C
Assay: NCI In Vivo Anticancer Drug Screen. Data for tumor model P388 Leukemia (intraperitoneal) in CD2F1 (CDF1) mice
Conditions: endpoint: median survival time, higher = longer survival
Outline: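 Mice carrying the transplanted tumor received test compound or vehicle. Survival was recorded in each group, and the value is the treated-group measurement divided by that of the vehicle-treated control group.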

[1] = dose: 60.0 mg/kg/injection, schedule: Q01DX005 (ip), vehicle: saline with Tween-80
[2] = dose: 120.0 mg/kg/injection, schedule: Q01DX005 (ip), vehicle: saline with Tween-80
[3] = dose: 240.0 mg/kg/injection, schedule: Q01DX005 (ip), vehicle: saline with Tween-80
[4] = dose: 6.25 mg/kg/injection, schedule: Q01DX009 (ip), vehicle: Klucel (hydroxypropylcellulose) (HPC)
[5] = dose: 12.5 mg/kg/injection, schedule: Q01DX009 (ip), vehicle: Klucel (hydroxypropylcellulose) (HPC)
[6] = dose: 25.0 mg/kg/injection, schedule: Q01DX009 (ip), vehicle: Klucel (hydroxypropylcellulose) (HPC)
[7] = dose: 25.0 mg/kg/injection, schedule: Q01DX005 (ip), vehicle: saline with Tween-80
[8] = dose: 50.0 mg/kg/injection, schedule: Q01DX005 (ip), vehicle: saline with Tween-80
[9] = dose: 60.0 mg/kg/injection, schedule: Q01DX005 (ip), vehicle: Klucel (hydroxypropylcellulose) (HPC)
[10] = dose: 120.0 mg/kg/injection, schedule: Q01DX005 (ip), vehicle: Klucel (hydroxypropylcellulose) (HPC)
[11] = dose: 240.0 mg/kg/injection, schedule: Q01DX005 (ip), vehicle: Klucel (hydroxypropylcellulose) (HPC)
[12] = dose: 30.0 mg/kg/injection, schedule: Q01DX005 (ip), vehicle: saline with Tween-80
[13] = dose: 50.0 mg/kg/injection, schedule: Q01DX005 (ip), vehicle: Klucel (hydroxypropylcellulose) (HPC)
[14] = dose: 100.0 mg/kg/injection, schedule: Q01DX005 (ip), vehicle: Klucel (hydroxypropylcellulose) (HPC)
[15] = dose: 200.0 mg/kg/injection, schedule: Q01DX005 (ip), vehicle: Klucel (hydroxypropylcellulose) (HPC)
[16] = dose: 100.0 mg/kg/injection, schedule: Q01DX005 (ip), vehicle: saline with Tween-80
[17] = dose: 200.0 mg/kg/injection, schedule: Q01DX005 (ip), vehicle: saline with Tween-80

`Cc1cc2c(c(O)c1O)/C(=C/N=NC(N)=S)C(Cl)=N2` was tested, and the T/C (dose: 100.0 mg/kg/injection, schedule: Q01DX001 (ip), vehicle: Klucel (hydroxypropylcellulose) (HPC)) was 101 % of control, the T/C (dose: 200.0 mg/kg/injection, schedule: Q01DX001 (ip), vehicle: Klucel (hydroxypropylcellulose) (HPC)) was 102 % of control and the T/C (dose: 400.0 mg/kg/injection, schedule: Q01DX001 (ip), vehicle: Klucel (hydroxypropylcellulose) (HPC)) was 100 % of control.
With `O=[N+]([O-])c1cc2[nH]cnc2c([N+](=O)[O-])c1Nc1ccccc1` the T/C (dose: 100.0 mg/kg/injection, schedule: Q04DX003 (ip), vehicle: saline with Tween-80) was 102 % of control, the T/C (dose: 200.0 mg/kg/injection, schedule: Q04DX003 (ip), vehicle: saline with Tween-80) was 93 % of control and the T/C (dose: 400.0 mg/kg/injection, schedule: Q04DX003 (ip), vehicle: saline with Tween-80) was 101 % of control.
With `COc1c(C)c(=O)n2c3ccccc3n(C)c2c1C#N` the T/C [1] was 103 % of control, the T/C [2] was 107 % of control and the T/C [3] was 99 % of control.
With `Nc1ncnc2c1C=C(B(O)O)B(O)N2` the T/C [4] was 97 % of control, the T/C [5] was 99 % of control and the T/C [6] was 104 % of control.
`Cc1ccc(S(=O)(=O)N/N=C/c2cc([N+](=O)[O-])cc(I)c2O)cc1` was tested, and the T/C (dose: 12.5 mg/kg/injection, schedule: Q01DX005 (ip), vehicle: distilled water + Tween-80) was 102 % of control, the T/C (dose: 25.0 mg/kg/injection, schedule: Q01DX005 (ip), vehicle: distilled water + Tween-80) was 109 % of control and the T/C (dose: 50.0 mg/kg/injection, schedule: Q01DX005 (ip), vehicle: distilled water + Tween-80) was 98 % of control and 112 % of control. The T/C (dose: 100.0 mg/kg/injection, schedule: Q01DX005 (ip), vehicle: distilled water + Tween-80) was 98 % of control and 102 % of control, the T/C (dose: 200.0 mg/kg/injection, schedule: Q01DX005 (ip), vehicle: distilled water + Tween-80) was 122 % of control and 95 % of control and the T/C (dose: 400.0 mg/kg/injection, schedule: Q01DX005 (ip), vehicle: distilled water + Tween-80) was 93 % of control.
In the case of `COC1OC(CS[As](C)C)C(O)C(O)C1O` (stereo unspecified), the T/C [4] is reported as 95 % of control, the T/C [5] is reported as 100 % of control and the T/C [6] is reported as 103 % of control. The T/C (dose: 50.0 mg/kg/injection, schedule: Q01DX009 (ip), vehicle: Klucel (hydroxypropylcellulose) (HPC)) was 106 % of control.
`CN(C)CCNc1cccc2sc3ccc(O)cc3c(=O)c12` was tested, and the T/C (dose: 12.5 mg/kg/injection, schedule: Q01DX005 (ip), vehicle: saline with Tween-80) was 113 % of control, the T/C [7] was 115 % of control and 123 % of control and the T/C [8] was 123 % of control and 124 % of control.
For `CC(=O)O[C@@H]1C(C(=O)[C@@H](C)C(C)C)OCOC1C1CC(=O)NC(=O)C1` (stereo partly specified), the T/C (dose: 0.01 mg/kg/injection, schedule: Q01DX009 (ip), vehicle: distilled water + alcohol) was 100 % of control, the T/C (dose: 0.03 mg/kg/injection, schedule: Q01DX009 (ip), vehicle: distilled water + alcohol) was 100 % of control and the T/C (dose: 0.06 mg/kg/injection, schedule: Q01DX009 (ip), vehicle: distilled water + alcohol) was 93 % of control. For the same molecule, the T/C (dose: 0.12 mg/kg/injection, schedule: Q01DX009 (ip), vehicle: distilled water + alcohol) was 98 % of control.
For `CCOC(=O)C1C(CCC#N)C(=O)CCC1(C#N)c1ccccc1` (stereo unspecified), the T/C (dose: 100.0 mg/kg/injection, schedule: Q01DX001 (ip), vehicle: saline) was 105 % of control, the T/C (dose: 200.0 mg/kg/injection, schedule: Q01DX001 (ip), vehicle: saline) was 100 % of control and the T/C (dose: 400.0 mg/kg/injection, schedule: Q01DX001 (ip), vehicle: saline) was 105 % of control.
`O=C(O)c1ccccc1N=Nc1ccc(N(CCCl)CCCl)cc1` was tested, and the T/C (dose: 3.13 mg/kg/injection, schedule: Q04DX003 (ip), vehicle: Klucel (hydroxypropylcellulose) (HPC)) was 122 % of control, the T/C (dose: 6.25 mg/kg/injection, schedule: Q01DX009 (ip), vehicle: saline with Tween-80) was 166 % of control and the T/C (dose: 12.5 mg/kg/injection, schedule: Q01DX009 (ip), vehicle: saline with Tween-80) was 152 % of control and 154 % of control. For the same molecule, the T/C (dose: 12.5 mg/kg/injection, schedule: Q04DX003 (ip), vehicle: Klucel (hydroxypropylcellulose) (HPC)) was 177 % of control, the T/C (dose: 25.0 mg/kg/injection, schedule: Q01DX009 (ip), vehicle: saline with Tween-80) was 162 % of control and 166 % of control and the T/C (dose: 50.0 mg/kg/injection, schedule: Q01DX009 (ip), vehicle: saline with Tween-80) was 99 % of control.
`CCCCN(CCCC)Cc1c(C)[nH]c2ccc(N(C)C)cc2c1=O` was tested, and the T/C (dose: 50.0 mg/kg/injection, schedule: Q01DX009 (ip), vehicle: suspension in saline) was 108 % of control and the T/C (dose: 100.0 mg/kg/injection, schedule: Q01DX009 (ip), vehicle: suspension in saline) was 103 % of control.
With `COc1ccccc1C1OC(N)=C(O)C1=O` (stereo unspecified) the T/C [9] was 97 % of control, the T/C [10] was 103 % of control and the T/C [11] was 104 % of control.
With `c1ccc(CC2CCc3ccccc3/C2=N/OCC2CO2)cc1` (stereo unspecified) the T/C [12] was 101 % of control, the T/C [1] was 97 % of control and the T/C [2] was 98 % of control.
`S=c1nc(-c2nc(=S)[nH]c3c2CCCCCCCCCC3)c2c([nH]1)CCCCCCCCCC2` was tested, and the T/C [9] was 99 % of control, the T/C [10] was 92 % of control and the T/C [11] was 93 % of control.
In the case of `Nc1c(S(=O)(=O)O)cc(Nc2cccc(S(=O)(=O)/C=C/S(=O)(=O)O)c2)c2c1C(=O)c1ccccc1C2=O`, the T/C (dose: 60.0 mg/kg/injection, schedule: Q01DX005 (ip), vehicle: saline) is reported as 99 % of control, the T/C (dose: 120.0 mg/kg/injection, schedule: Q01DX005 (ip), vehicle: saline) is reported as 104 % of control and the T/C (dose: 240.0 mg/kg/injection, schedule: Q01DX005 (ip), vehicle: saline) is reported as 111 % of control.
For `O=C(O)C(CO)Nc1ncnc2nc[nH]c12` (stereo unspecified), the T/C [13] was 106 % of control, the T/C [14] was 109 % of control and the T/C [15] was 109 % of control.
In the case of `O=C(C1CC2C=CC1C2)N1CCCCC1` (stereo unspecified), the T/C (dose: 50.0 mg/kg/injection, schedule: Q01DX009 (ip), vehicle: saline) is reported as 90 % of control, the T/C (dose: 100.0 mg/kg/injection, schedule: Q01DX009 (ip), vehicle: saline) is reported as 91 % of control and the T/C (dose: 200.0 mg/kg/injection, schedule: Q01DX009 (ip), vehicle: saline) is reported as 98 % of control.
`O=C1CCCC(O)=C1[Se]C1=C(O)CCCC1=O` was tested, and the T/C (dose: 6.25 mg/kg/injection, schedule: Q01DX001 (ip), vehicle: saline) was 103 % of control, the T/C (dose: 12.5 mg/kg/injection, schedule: Q01DX001 (ip), vehicle: saline) was 101 % of control and the T/C (dose: 25.0 mg/kg/injection, schedule: Q01DX001 (ip), vehicle: saline) was 101 % of control.
In the case of `O=C(CCl)Nc1nc(NC(=O)CCl)nc(NC(=O)CCl)n1`, the T/C (dose: 100.0 mg/kg/injection, schedule: Q04DX002 (ip), vehicle: saline) is reported as 96 % of control, the T/C (dose: 200.0 mg/kg/injection, schedule: Q04DX002 (ip), vehicle: saline) is reported as 96 % of control and the T/C (dose: 400.0 mg/kg/injection, schedule: Q04DX002 (ip), vehicle: saline) is reported as 95 % of control.
In the case of `NC(Cc1cc(I)c(Oc2cc(I)c(O)c(I)c2)c(I)c1)C(=O)O` (stereo unspecified), the T/C (dose: 0.25 mg/kg/injection, schedule: Q01DX009 (ip), vehicle: saline) is reported as 99 % of control, the T/C (dose: 0.5 mg/kg/injection, schedule: Q01DX009 (ip), vehicle: saline) is reported as 103 % of control and the T/C (dose: 1.0 mg/kg/injection, schedule: Q01DX009 (ip), vehicle: saline) is reported as 99 % of control. The T/C (dose: 2.0 mg/kg/injection, schedule: Q01DX009 (ip), vehicle: saline) was 94 % of control and the T/C (dose: 4.0 mg/kg/injection, schedule: Q01DX009 (ip), vehicle: saline) was 88 % of control.
For `C[C@]12CC[C@@H]3c4ccc(OCCCO)c([N+](=O)[O-])c4CC[C@H]3[C@@H]1CCC2=O`, the T/C [7] was 100 % of control, the T/C [8] was 106 % of control and the T/C [16] was 91 % of control. For the same molecule, the T/C [17] was 88 % of control.
`CCn1c2ccccc2n2c(=O)c(Cc3ccccc3)c(C)c(C#N)c12` was tested, and the T/C (dose: 15.0 mg/kg/injection, schedule: Q01DX005 (ip), vehicle: saline with Tween-80) was 92 % of control, the T/C [12] was 91 % of control and the T/C [1] was 88 % of control and 89 % of control. For the same molecule, the T/C [3] was 86 % of control.
For `C[Si](C)(C)Cn1ccc(=O)n(C[Si](C)(C)C)c1=O`, the T/C [8] was 107 % of control, the T/C [16] was 101 % of control and the T/C [17] was 107 % of control.
In the case of `CCCN(CCC)c1ccc(C(=O)Oc2c(C)cccc2OC)cc1`, the T/C [13] is reported as 93 % of control, the T/C [14] is reported as 102 % of control and the T/C [15] is reported as 90 % of control.
In the case of `COCOc1cccc2c1C(O)CC2` (stereo unspecified), the T/C [1] is reported as 100 % of control, the T/C [2] is reported as 100 % of control and the T/C [3] is reported as 98 % of control.
